Assay [1] has as its system microorganisms. As to the kind of experiment: Morphology, biofilm and growth disrupting peptides (Table 5). In kind it is cell-based. Further details: key: A: Peptide aggregates; B: Less hyphal formation; Clumps; Diffuse clumps and small polyps; F: Diffuse growth; H: Thin; I: Growth inhibition; Microcolony formation; Rippled; Small polyps; Thick; W: Halo formation on top, microlonies on bottom. An excerpt: In certain embodiments peptides that induce alterations in phenotype or other biological activities can also be used as antimicrobial effector moieties.

The subject of assay [2] is microorganisms. As to the kind of experiment: Targeting peptide binding to target microorganisms (Tables 3, 10, 12). To be noted: microorganism(s) the targeting peptide binds; binding in aqueous buffers varied with peptide solubility, preferably 1x PBS.
The test system of assay [3] is microorganisms. Description: Peptide activities: targeting/binding, antimicrobial, growth or phenotype altering (Tables 7, 8). In kind it is cell-based. To be noted: peptides having multiple activities.

Consider 15 substances from patent US20110039763A1, “TARGETED ANTIMICROBIAL MOIETIES” (C3 JIAN, INC., priority 2009, published 2011).

Entries after “also recorded” stand apart in the source; their conditions may differ.

Turning to “PF-550: peptide having multiple activities (STENGWQEFESYADVGVDPRRYVPL; Peptide with targeting and/or antimicrobial activity)”, in assay [1] (B. subtilis), the “Organism, effect” value is listed as “B. subtilis (D)”. Further, the “Target(s)” value in assay [2] is recorded as “S. pneumoniae”. The Activities result in assay [3] is “G B”.
For the substance “PF-551: peptide having multiple activities (QVKEKRREIELQFRDAEKKLEASVQAE; Peptide with targeting and/or antimicrobial activity)”, the “Organism, effect” value in assay [1] (MRSA) is reported as “MRSA (C)”. Moreover, the “Target(s)” value in assay [2] is “S. pneumoniae”. In assay [3], the Activities result is on record as “G B”.
With “PF-552: peptide having multiple activities (ELDKADAALGPAKNLAPLDVINRS; Peptide with targeting and/or antimicrobial activity)”, in assay [1] (B. subtilis), the “Organism, effect” value is recorded as “B. subtilis (D)”. In assay [2], the “Target(s)” value is on record as “S. pneumoniae”. Further, the Activities result in assay [3] was “G B”.
Turning to “PF-553: peptide having multiple activities (LTIVGNALQQKNQKLLLNQKKITSLG; Peptide with targeting and/or antimicrobial activity)”, the “Organism, effect” value in assay [1] (B. subtilis) is given as “B. subtilis (D)”; in assay [1] (C. jeikeium), “C. jeikeium (R)”; in assay [1] (MRSA), “MRSA (M)”; in assay [1] (S. pneumoniae) it was “S. pneumoniae (R)”. Also, in assay [2], the “Target(s)” value was “S. epidermidis and E. coli and P. aeruginosa and C. albicans and MRSA and S. pneumoniae and C. jeikeium”. Further, in assay [3], the Activities entry is “G B”.
Regarding “PF-554: peptide having multiple activities (AKNFLTRTAEEIGEQAVREGNINGP; Peptide with targeting and/or antimicrobial activity)”, the “Organism, effect” value in assay [1] (B. subtilis) is listed as “B. subtilis (D)”. The “Target(s)” value in assay [2] is recorded as “S. pneumoniae”. In addition, the Activities result in assay [3] is “G B”.
The corresponding values for “PF-557: peptide having multiple activities (AANKAREQAAAEAKRKAEEQAR; Peptide with targeting and/or antimicrobial activity)” are “B. subtilis (D)”, “S. pneumoniae” and “G B”.
In the case of “PF-558: peptide having multiple activities (ADAPPPLIVRYS; Peptide with targeting and/or antimicrobial activity)”, the “Organism, effect” value in assay [1] (B. subtilis) was “B. subtilis (D)”; in assay [1] (C. jejuni), “C. jejuni (H)”; in assay [1] (MRSA), “MRSA (C)”; in assay [1] (S. epidermidis), “S. epidermidis (M)”; in assay [1] (S. pneumoniae), “S. pneumoniae (R)”. In assay [2], the “Target(s)” value is “S. epidermidis; also recorded: E. coli; also recorded: C. albicans; also recorded: C. jeikeium; also recorded: C. jejuni”. In addition, the Activities result in assay [3] was “G B”.
In the case of “PF-559: peptide having multiple activities (SRPGKPGGVSIDVSRDRQDILSNYP; Peptide with targeting and/or antimicrobial activity)”, the “Organism, effect” value in assay [1] (B. subtilis) was “B. subtilis (C)”; in assay [1] (C. jejuni), “C. jejuni (A)”. The “Target(s)” value in assay [2] is listed as “S. epidermidis; also recorded: M. luteus; also recorded: C. albicans; also recorded: C. jeikeium; also recorded: C. jejuni”. For the same substance, the Activities result in assay [3] is “G B”.
For the substance “PF-560: peptide having multiple activities (FGNPFRGFTLAMEADFKKRK; Peptide with targeting and/or antimicrobial activity)”, the “Organism, effect” value is “B. subtilis (D)” in assay [1] (B. subtilis), “C. jejuni (A)” in assay [1] (C. jejuni), “MRSA (C)” in assay [1] (MRSA) and “S. pneumoniae (R)” in assay [1] (S. pneumoniae). In assay [2], the “Target(s)” value was “S. epidermidis; also recorded: M. luteus; also recorded: E. coli; also recorded: S. pneumoniae; also recorded: C. jeikeium; also recorded: C. jejuni”. Further, the Activities entry in assay [3] is reported as “G B”.
Regarding “PF-563: peptide having multiple activities (RPELDNELDVVQNSASLDKLQASYN; Peptide with targeting and/or antimicrobial activity)”, the “Organism, effect” value is “B. subtilis (D)” in assay [1] (B. subtilis), “C. jejuni (H)” in assay [1] (C. jejuni) and “S. pneumoniae (H)” in assay [1] (S. pneumoniae). Besides, in assay [2], the “Target(s)” value was “S. epidermidis; also recorded: M. luteus; also recorded: C. jeikeium”. For the same substance, the Activities entry in assay [3] is reported as “G B”.
Consider “PF-564: peptide having multiple activities (TIILNDQINSLQERLNKLNAETDRR; Peptide with targeting and/or antimicrobial activity)”, for which the “Organism, effect” value in assay [1] (B. subtilis) is “B. subtilis (D)”; in assay [1] (C. jeikeium), “C. jeikeium (R)”; in assay [1] (C. jejuni), “C. jejuni (R)”; in assay [1] (MRSA) it was “MRSA (C)”. The “Target(s)” value in assay [2] is reported as “S. epidermidis; also recorded: C. albicans; also recorded: S. pneumoniae; also recorded: C. jeikeium”. The Activities result in assay [3] is given as “G B”.
With “PF-566: peptide having multiple activities (EAQQVTQQLGADFNAITTPTATKV; Peptide with targeting and/or antimicrobial activity)”, the “Organism, effect” value in assay [1] (B. subtilis) is “B. subtilis (C)”; in assay [1] (C. jeikeium), “C. jeikeium (C)”; in assay [1] (C. jejuni), “C. jejuni (D)”; in assay [1] (M. luteus), “M. luteus (D)”; in assay [1] (MRSA) it was “MRSA (M)”; in assay [1] (S. pneumoniae), “S. pneumoniae (D)”. The “Target(s)” value in assay [2] is given as “P. mirabilis; also recorded: S. pneumoniae”. The Activities result in assay [3] was “G B”.
Consider “PF-567: peptide having multiple activities (QQRVKAVDASLSQVSTQVSGAVASA; Peptide with targeting and/or antimicrobial activity)”, for which the “Organism, effect” value in assay [1] (C. jeikeium) was “C. jeikeium (C)”; in assay [1] (C. jejuni) it was “C. jejuni (D)”; in assay [1] (M. luteus), “M. luteus (C)”; in assay [1] (MRSA), “MRSA (D)”; in assay [1] (S. pneumoniae) it was “S. pneumoniae (D)”. Moreover, in assay [2], the “Target(s)” value is “S. epidermidis and P. aeruginosa and C. albicans and MRSA and S. pneumoniae and C. jeikeium”. Further, in assay [3], the Activities result is given as “G B”.
On to “PF-569: peptide having multiple activities (KSKISEYTEKEFLEFVEDIYTNNK; Peptide with targeting and/or antimicrobial activity)”, for which, in assay [1] (B. subtilis), the “Organism, effect” value is “B. subtilis (D)”. The “Target(s)” value in assay [2] is recorded as “M. luteus; also recorded: P. mirabilis; also recorded: S. pneumoniae; also recorded: E. faecalis; also recorded: C. jeikeium”. The Activities entry in assay [3] was “G B”.
As for “PF-572: peptide having multiple activities (WRASKGLPGFKAG; Peptide with targeting and/or antimicrobial activity)”, the “Organism, effect” value in assay [1] (B. subtilis) is “B. subtilis (D)”; in assay [1] (S. pneumoniae) it was “S. pneumoniae (R)”. Moreover, the “Target(s)” value in assay [2] is recorded as “S. epidermidis; also recorded: M. luteus; also recorded: E. coli; also recorded: S. pneumoniae; also recorded: C. jeikeium”. Moreover, the Activities result in assay [3] is listed as “G B”.
